Paper PMC7827406, “Structure–Activity Relationship (SAR) Study of Spautin-1 to Entail the Discovery of Novel NEK4 Inhibitors” (International Journal of Molecular Sciences, 2021)
Where two headings read alike, the source gives them in different places.

Tests used:
Assay in all cases: biochemical
Parameters in all cases: Eurofins KinaseProfiler full panel at Km ATP, residual kinase activity (%) relative to DMSO
CDK14/cyclinY(h) = CDK14/cyclinY(h) (Homo sapiens, UniProt O94921)
In short: (§1)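 Radiometric kinase activity assays were run with ATP at Km and compounds at 10 µM, and remaining activity (%) was reported. A separate competitive binding screen measured DNA-tagged kinase displaced from immobilized active-site ligands by qPCR, giving percent kinase still bound at 10 µM compound in DMSO.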

DYRK3(h) = target: T1, DYRK3(h) (Homo sapiens, UniProt O43781)
T1 sequence (O43781 1-588): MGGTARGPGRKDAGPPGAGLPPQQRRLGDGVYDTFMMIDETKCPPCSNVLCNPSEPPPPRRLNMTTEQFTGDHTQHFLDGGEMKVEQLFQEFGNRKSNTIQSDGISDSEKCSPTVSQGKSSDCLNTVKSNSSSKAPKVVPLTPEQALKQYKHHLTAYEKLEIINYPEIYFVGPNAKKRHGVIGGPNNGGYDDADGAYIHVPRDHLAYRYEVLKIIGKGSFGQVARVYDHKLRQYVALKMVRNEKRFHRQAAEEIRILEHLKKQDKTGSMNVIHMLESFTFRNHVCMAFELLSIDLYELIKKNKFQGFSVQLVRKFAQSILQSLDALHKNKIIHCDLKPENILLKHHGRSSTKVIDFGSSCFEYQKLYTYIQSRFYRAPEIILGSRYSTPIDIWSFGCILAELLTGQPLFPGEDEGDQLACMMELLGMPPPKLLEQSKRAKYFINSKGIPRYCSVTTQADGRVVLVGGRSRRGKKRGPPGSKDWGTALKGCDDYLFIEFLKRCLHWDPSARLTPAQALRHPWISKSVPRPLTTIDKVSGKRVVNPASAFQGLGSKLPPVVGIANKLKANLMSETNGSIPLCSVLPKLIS
In short: as §1

LOK(h) = target: T2, LOK(h) (Homo sapiens, UniProt O94804)
T2 construct: gene STK10
In short: as §1

Plk4(h) = target: T3, Plk4(h) (Homo sapiens, UniProt O00444)
T3 sequence (O00444 1-970): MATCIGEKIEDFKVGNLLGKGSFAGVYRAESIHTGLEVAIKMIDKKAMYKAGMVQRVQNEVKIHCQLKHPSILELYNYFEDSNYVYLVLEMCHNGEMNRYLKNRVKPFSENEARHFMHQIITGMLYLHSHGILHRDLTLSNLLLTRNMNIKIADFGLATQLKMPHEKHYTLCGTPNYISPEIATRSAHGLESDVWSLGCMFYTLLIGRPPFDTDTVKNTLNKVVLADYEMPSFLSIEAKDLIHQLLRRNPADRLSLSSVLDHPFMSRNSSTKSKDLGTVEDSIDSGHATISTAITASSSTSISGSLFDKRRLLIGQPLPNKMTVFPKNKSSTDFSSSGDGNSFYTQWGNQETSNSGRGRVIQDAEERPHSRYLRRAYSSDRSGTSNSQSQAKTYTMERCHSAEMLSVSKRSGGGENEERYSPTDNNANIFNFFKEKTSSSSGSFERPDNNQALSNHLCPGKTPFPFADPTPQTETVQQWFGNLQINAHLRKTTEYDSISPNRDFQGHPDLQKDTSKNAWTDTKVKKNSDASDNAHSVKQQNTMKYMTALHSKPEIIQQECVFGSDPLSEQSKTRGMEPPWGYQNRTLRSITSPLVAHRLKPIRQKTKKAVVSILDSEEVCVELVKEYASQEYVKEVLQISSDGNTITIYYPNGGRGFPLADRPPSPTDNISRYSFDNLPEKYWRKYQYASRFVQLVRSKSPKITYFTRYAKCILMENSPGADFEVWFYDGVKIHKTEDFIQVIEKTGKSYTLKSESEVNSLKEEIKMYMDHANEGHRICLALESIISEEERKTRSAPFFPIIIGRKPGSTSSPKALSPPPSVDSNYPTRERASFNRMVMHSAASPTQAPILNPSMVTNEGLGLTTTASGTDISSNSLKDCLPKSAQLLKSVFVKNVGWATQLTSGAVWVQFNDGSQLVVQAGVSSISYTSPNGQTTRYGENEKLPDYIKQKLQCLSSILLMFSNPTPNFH
In short: as §1

Src(T341M)(h) = Src(T341M)(h) (Homo sapiens, UniProt P12931, T341M)
In short: as §1

[1] = read-out: Residual activity (%) 5ay
[2] = read-out: Residual activity (%) Spautin-1 5aa
[3] = read-out: Residual activity (%) 5at
[4] = read-out: Residual activity (%) 5as

T2 sequence (O94804 whole entry): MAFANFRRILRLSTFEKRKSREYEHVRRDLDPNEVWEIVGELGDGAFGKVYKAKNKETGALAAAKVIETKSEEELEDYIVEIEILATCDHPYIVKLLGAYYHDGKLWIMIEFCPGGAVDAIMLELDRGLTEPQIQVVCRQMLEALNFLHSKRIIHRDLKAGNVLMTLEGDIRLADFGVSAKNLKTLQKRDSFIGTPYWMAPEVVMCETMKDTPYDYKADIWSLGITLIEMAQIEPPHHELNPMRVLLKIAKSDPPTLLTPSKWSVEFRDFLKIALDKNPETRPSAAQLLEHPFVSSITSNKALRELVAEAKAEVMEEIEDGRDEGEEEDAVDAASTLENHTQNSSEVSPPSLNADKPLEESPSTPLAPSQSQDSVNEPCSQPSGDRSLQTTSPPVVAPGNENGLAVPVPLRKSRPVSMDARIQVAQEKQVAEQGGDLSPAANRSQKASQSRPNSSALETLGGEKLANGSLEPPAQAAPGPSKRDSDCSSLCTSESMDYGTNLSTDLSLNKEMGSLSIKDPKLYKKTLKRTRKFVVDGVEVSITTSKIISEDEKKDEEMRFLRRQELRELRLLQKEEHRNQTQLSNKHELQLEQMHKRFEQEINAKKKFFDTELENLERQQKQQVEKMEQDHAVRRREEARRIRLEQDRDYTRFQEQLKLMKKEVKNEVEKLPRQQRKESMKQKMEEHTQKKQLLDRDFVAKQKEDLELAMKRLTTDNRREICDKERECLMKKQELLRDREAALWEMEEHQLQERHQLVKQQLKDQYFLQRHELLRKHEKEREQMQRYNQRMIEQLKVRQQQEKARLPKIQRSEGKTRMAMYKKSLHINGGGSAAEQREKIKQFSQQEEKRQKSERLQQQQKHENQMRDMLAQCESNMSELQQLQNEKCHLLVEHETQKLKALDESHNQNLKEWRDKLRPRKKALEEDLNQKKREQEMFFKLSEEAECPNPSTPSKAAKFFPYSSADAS
Sequence of CDK14/cyclinY(h) (O94921 whole entry): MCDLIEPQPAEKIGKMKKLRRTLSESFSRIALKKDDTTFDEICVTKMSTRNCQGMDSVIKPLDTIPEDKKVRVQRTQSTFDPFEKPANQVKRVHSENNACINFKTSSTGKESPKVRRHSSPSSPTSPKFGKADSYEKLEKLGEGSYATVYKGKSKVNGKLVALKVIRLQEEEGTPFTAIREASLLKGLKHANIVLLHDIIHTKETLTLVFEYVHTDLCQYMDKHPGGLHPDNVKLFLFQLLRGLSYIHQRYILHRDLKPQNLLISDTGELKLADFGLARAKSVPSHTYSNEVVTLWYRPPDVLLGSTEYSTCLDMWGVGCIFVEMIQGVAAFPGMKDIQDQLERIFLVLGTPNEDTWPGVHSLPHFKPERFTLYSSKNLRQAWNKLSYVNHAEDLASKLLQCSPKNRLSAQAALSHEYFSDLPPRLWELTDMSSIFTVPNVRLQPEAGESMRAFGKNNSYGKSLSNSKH
Sequence of CDK14/cyclinY(h) (Q8ND76 whole entry partner): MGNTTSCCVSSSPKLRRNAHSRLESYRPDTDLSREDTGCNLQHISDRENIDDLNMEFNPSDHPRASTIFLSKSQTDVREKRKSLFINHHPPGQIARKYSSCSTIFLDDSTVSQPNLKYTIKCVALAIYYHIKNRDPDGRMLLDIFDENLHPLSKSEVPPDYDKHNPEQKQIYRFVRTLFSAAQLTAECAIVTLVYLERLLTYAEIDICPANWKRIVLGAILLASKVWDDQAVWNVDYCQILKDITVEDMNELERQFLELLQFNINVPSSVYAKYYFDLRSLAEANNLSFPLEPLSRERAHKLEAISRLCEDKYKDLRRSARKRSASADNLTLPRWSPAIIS
Sequence of Src(T341M)(h) (P12931 whole entry T341M): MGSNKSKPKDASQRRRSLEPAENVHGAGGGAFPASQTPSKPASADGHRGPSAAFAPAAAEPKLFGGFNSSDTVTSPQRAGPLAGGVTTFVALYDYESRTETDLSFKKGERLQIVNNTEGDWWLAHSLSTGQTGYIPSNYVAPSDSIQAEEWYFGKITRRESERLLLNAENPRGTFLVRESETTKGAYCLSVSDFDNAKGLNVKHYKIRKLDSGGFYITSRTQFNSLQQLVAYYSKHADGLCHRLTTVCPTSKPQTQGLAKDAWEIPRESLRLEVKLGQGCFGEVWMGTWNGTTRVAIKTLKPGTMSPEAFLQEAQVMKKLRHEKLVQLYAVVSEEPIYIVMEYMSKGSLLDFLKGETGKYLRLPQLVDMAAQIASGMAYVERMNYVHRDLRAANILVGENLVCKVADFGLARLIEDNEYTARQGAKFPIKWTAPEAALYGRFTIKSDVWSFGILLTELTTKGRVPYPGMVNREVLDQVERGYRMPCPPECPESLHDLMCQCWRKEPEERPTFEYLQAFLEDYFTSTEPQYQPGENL

COc1ccc2ncnc(Nc3cccc(F)c3)c2c1 [5ay, N-(3-Fluorophenyl)-6-Methoxy-4-Quinazolinamine]
remaining activity at 10 µM (CDK14/cyclinY(h); [1]): 93%
remaining activity at 10 µM (DYRK3(h); [1]): 57%
remaining activity at 10 µM (LOK(h); [1]): 35%
remaining activity at 10 µM (Plk4(h); [1]): 87%
remaining activity at 10 µM (Src(T341M)(h); [1]): 96%

Fc1ccc(CNc2ncnc3ccc(F)cc23)cc1 [5aa, 6-Fluoro-N-(4-fluorobenzyl)-4-Quinazolinamine]
remaining activity at 10 µM (CDK14/cyclinY(h); [2]): 107%
remaining activity at 10 µM (DYRK3(h); [2]): 117%
remaining activity at 10 µM (LOK(h); [2]): 91%
remaining activity at 10 µM (Plk4(h); [2]): 91%
remaining activity at 10 µM (Src(T341M)(h); [2]): 94%

Fc1ccc2ncnc(NCCc3ccc(Cl)cc3)c2c1 [5at, N-[2-(4-Chlorophenyl)Ethyl]-6-Fluoro-4-Quinazolinamine]
remaining activity at 10 µM (CDK14/cyclinY(h); [3]): 109%
remaining activity at 10 µM (DYRK3(h); [3]): 98%
remaining activity at 10 µM (LOK(h); [3]): 87%
remaining activity at 10 µM (Plk4(h); [3]): 78%
remaining activity at 10 µM (Src(T341M)(h); [3]): 83%

Fc1ccc(CCNc2ncnc3ccc(F)cc23)cc1 [5as, 6-Fluoro-N-[2-(4-Fluorophenyl)Ethyl]-4-Quinazolinamine]
remaining activity at 10 µM (CDK14/cyclinY(h); [4]): 103%
remaining activity at 10 µM (DYRK3(h); [4]): 98%
remaining activity at 10 µM (LOK(h); [4]): 81%
remaining activity at 10 µM (Plk4(h); [4]): 80%
remaining activity at 10 µM (Src(T341M)(h); [4]): 103%
